The results in this text go back to patent US9555022B2, “Substituted triazolopyridines” (Bayer Intellectual Property GmbH, priority 2010, dated 2017).

The structures appear in SMILES notation. Counter-ions that a name gives are not always drawn.

For this test, the target named is human full length recombinant Mps-1 kinase (Homo sapiens (Human), UniProt P33981). In words: Mps-1 Kinase Assay (TR-FRET). The format is biochemical. The following applies: 10 μM ATP, 1 μM biotinylated peptide substrate, 60 min at 22° C., read-out: Mps-1 Inhibition, IC50 in M. How it is done: The human kinase Mps-1 phosphorylates a biotinylated substrate peptide. Detection of the phosphorylated product is achieved by time-resolved fluorescence resonance energy transfer (TR-FRET) from Europium-labelled anti-phospho-Serine/Threonine antibody as donor to streptavidin labelled with cross-linked allophycocyanin (SA-XLent) as acceptor. Compounds are tested for their inhibition of the kinase activity.
human full length recombinant Mps-1 kinase, sequence (P33981 whole entry): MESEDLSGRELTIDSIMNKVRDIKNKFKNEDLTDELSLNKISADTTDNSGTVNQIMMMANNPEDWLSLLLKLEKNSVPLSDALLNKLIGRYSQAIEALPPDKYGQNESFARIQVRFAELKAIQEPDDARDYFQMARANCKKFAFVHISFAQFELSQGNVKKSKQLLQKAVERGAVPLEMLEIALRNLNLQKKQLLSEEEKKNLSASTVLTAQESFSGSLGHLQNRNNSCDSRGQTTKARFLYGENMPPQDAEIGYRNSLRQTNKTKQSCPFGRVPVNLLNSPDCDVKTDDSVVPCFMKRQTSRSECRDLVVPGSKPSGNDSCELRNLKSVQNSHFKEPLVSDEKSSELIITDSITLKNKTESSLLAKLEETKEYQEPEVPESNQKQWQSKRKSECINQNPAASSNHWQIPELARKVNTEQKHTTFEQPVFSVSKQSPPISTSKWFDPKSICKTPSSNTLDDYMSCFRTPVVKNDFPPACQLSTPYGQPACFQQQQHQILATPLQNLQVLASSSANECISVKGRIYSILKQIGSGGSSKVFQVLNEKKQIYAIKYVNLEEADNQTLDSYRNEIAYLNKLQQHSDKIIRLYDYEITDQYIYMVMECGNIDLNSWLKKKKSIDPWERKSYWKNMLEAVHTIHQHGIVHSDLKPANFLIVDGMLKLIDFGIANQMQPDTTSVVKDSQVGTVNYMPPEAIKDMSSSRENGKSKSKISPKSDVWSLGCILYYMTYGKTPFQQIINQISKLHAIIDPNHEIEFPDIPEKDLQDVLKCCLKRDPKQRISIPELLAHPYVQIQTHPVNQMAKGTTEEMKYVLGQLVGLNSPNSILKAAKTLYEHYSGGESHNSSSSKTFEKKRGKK
N-terminally GST-tagged human full length recombinant Mps-1 kinase (purchased from Invitrogen, Karslruhe, Germany, cat. no PV4071) was used. As substrate for the kinase reaction a biotinylated peptide of the amino-acid sequence […] (C-terminus in amide form, purchased from Biosynthan GmbH, Berlin) was used.
The concentration of Mps-1 in the assay was adjusted to the activity of the enzyme lot and was chosen appropriate to have the assay in the linear range, typical enzyme concentrations were in the range of about 1 nM (final conc. in the 5 μl assay volume).
The resulting mixture was incubated 1 h at 22° C. to allow the binding of the phosphorylated peptide to the anti-phospho(Ser/Thr)-Europium-antibody. Subsequently the amount of phosphorylated substrate was evaluated by measurement of the resonance energy transfer from the Europium-labelled anti-phospho(Ser/Thr) antibody to the Streptavidin-XLent.

With `COc1cc(N2CCN(C)CC2)ccc1Nc1nc2ccc(-c3ccc(NC(=O)Cc4ccc(F)cc4)cc3)cn2n1` [Example 02.28, 2-(4-fluorophenyl)-N-[4-(2-{[2-methoxy-4-(4-methylpiperazin-1-yl)phenyl]amino}[,2]-triazolo[1,5-a]pyridin-6-yl)phenyl]acetamide], the IC50 was at most 1 nM.
As to `O=C(Cc1ccc(F)cc1)Nc1ccc(-c2ccc3nc(Nc4ccc(C(=O)N5CC6(COC6)C5)cc4OCCF)nn3c2)cc1` [Example 02.30, N-[4-(2-{[2-(2-fluoroethoxy)-4-(2-oxa-6-azaspiro[3.3]hept-6-ylcarbonyl)phenyl]amino}[,2]triazolo[1,5-a]pyridin-6-yl)phenyl]-2-(4-fluorophenyl)acetamide], the IC50 is at most 1 nM.
Consider `O=C(Cc1ccc(F)cc1)Nc1ccc(-c2ccc3nc(Nc4ccc(C(=O)N5CCOCC5)cc4OCC(F)F)nn3c2)cc1` [Example 02.31, N-[4-(2-{[2-(2,2-difluoroethoxy)-4-(morpholin-4-ylcarbonyl)phenyl]amino}[,2]-triazolo[1,5-a]pyridin-6-yl)phenyl]-2-(4-fluorophenyl)acetamide], for which the IC50 was at most 1 nM.
As to `O=C(Cc1ccc(F)cc1)Nc1ccc(-c2ccc3nc(Nc4ccc(C(=O)N5CCOCC5)cc4C(F)(F)F)nn3c2)cc1` [Example 02.32, 2-(4-fluorophenyl)-N-[4-(2-{[4-(morpholin-4-ylcarbonyl)-2-(trifluoromethyl)phenyl]amino}[,2]-triazolo[1,5-a]pyridin-6-yl)phenyl]acetamide], the IC50 was at most 1 nM.
As for `COc1cc(CN2CCOCC2)ccc1Nc1nc2ccc(-c3ccc(NC(=O)Cc4ccc(F)cc4)cc3)cn2n1` [Example 02.33, 2-(4-fluorophenyl)-N-[4-(2-{[2-methoxy-4-(morpholin-4-ylmethyl)phenyl]amino}[,2]-triazolo[1,5-a]pyridin-6-yl)phenyl]acetamide], the half-inhibitory concentration (IC50) was at most 1 nM.
For the compound `CCOc1cc(OC2CCN(C)CC2)ccc1Nc1nc2ccc(-c3ccc(NC(=O)Cc4ccc(F)cc4)cc3)cn2n1` [Example 02.34, N-{4-[2-({2-ethoxy-4-[(1-methylpiperidin-4-yl)oxy]phenyl}amino)[,2]triazolo[1,5-a]pyridin-6-yl]phenyl}-2-(4-fluorophenyl)acetamide], the IC50 was at most 1 nM.
As for `COc1cc(OC2CCN(C)CC2)ccc1Nc1nc2ccc(-c3ccc(NC(=O)Cc4ccc(F)cc4)cc3)cn2n1` [Example 02.35, 2-(4-fluorophenyl)-N-{4-[2-({2-methoxy-4-[(1-methylpiperidin-4-yl)oxy]phenyl}amino)[,2]triazolo[1,5-a]pyridin-6-yl]phenyl}acetamide], the IC50 was at most 1 nM.
For the compound `CSc1cc(OC2CCN(C)CC2)ccc1Nc1nc2ccc(-c3ccc(NC(=O)Cc4ccc(F)cc4)cc3)cn2n1` [Example 02.36, 2-(4-fluorophenyl)-N-{4-[2-({4-[(1-methylpiperidin-4-yl)oxy]-2-(methylsulfanyl)phenyl}amino)[,2]triazolo[1,5-a]pyridin-6-yl]phenyl}acetamide], the IC50 is at most 1 nM.
With `COc1cc(S(=O)(=O)N2CCOCC2)ccc1Nc1nc2ccc(-c3ccc(NC(=O)Cc4ccc(F)cc4)cc3)cn2n1` [Example 02.37, 2-(4-fluorophenyl)-N-[4-(2-{[2-methoxy-4-(morpholin-4-ylsulfonyl)phenyl]amino}[,2]-triazolo[1,5-a]pyridin-6-yl)phenyl]acetamide], the IC50 is at most 1 nM.
Consider `Cc1cc(C(=O)N2CC3(COC3)C2)ccc1Nc1nc2ccc(-c3ccc(NC(=O)Cc4ccc(F)cc4)cc3)cn2n1` [Example 02.38, 2-(4-fluorophenyl)-N-[4-(2-{[2-methyl-4-(2-oxa-6-azaspiro[3.3]hept-6-ylcarbonyl)phenyl]amino}[,2]triazolo[1,5-a]pyridin-6-yl)phenyl]acetamide], for which the half-maximal inhibitory concentration (IC50) was at most 1 nM.
For `Cc1cc(C(=O)N2CCOCC2)ccc1Nc1nc2ccc(-c3ccc(NC(=O)Cc4ccc(F)cc4)cc3)cn2n1` [Example 02.39, 2-(4-fluorophenyl)-N-[4-(2-{[2-methyl-4-(morpholin-4-ylcarbonyl)phenyl]amino}[,2]-triazolo[1,5-a]pyridin-6-yl)phenyl]acetamide], the IC50 was at most 1 nM.
`O=C(Cc1ccc(F)cc1)Nc1ccc(-c2ccc3nc(Nc4ccc(C(=O)N5CC6(COC6)C5)cc4OC(F)(F)F)nn3c2)cc1` [Example 02.40, 2-(4-fluorophenyl)-N-[4-(2-{[4-(2-oxa-6-azaspiro[3.3]hept-6-ylcarbonyl)-2-(trifluoromethoxy)phenyl]amino}[,2]triazolo[1,5-a]pyridin-6-yl)phenyl]acetamide]: the IC50 is at most 1 nM.
Regarding `COc1ccc(C(=O)N2CCOCC2)cc1Nc1nc2ccc(-c3ccc(NC(=O)Cc4ccc(F)cc4)cc3)cn2n1` [Example 02.41, 2-(4-fluorophenyl)-N-[4-(2-{[2-methoxy-5-(morpholin-4-ylcarbonyl)phenyl]amino}[,2]-triazolo[1,5-a]pyridin-6-yl)phenyl]acetamide], the IC50 is at most 1 nM.
`Cc1nc(N2CCOCC2)ccc1Nc1nc2ccc(-c3ccc(NC(=O)Cc4ccc(F)cc4)cc3)cn2n1` [Example 02.42, 2-(4-fluorophenyl)-N-[4-(2-{[2-methyl-6-(morpholin-4-yl)pyridin-3-yl]amino}[,2]-triazolo[1,5-a]pyridin-6-yl)phenyl]acetamide]: the half-maximal inhibitory concentration (IC50) was at most 1 nM.
Regarding `Cc1nc(N2CCCC2)ccc1Nc1nc2ccc(-c3ccc(NC(=O)Cc4ccc(F)cc4)cc3)cn2n1` [Example 02.43, 2-(4-fluorophenyl)-N-[4-(2-{[2-methyl-6-(pyrrolidin-1-yl)pyridin-3-yl]amino}[,2]-triazolo[1,5-a]pyridin-6-yl)phenyl]acetamide], the IC50 was at most 1 nM.
Regarding `COc1cc(C(=O)N2CCOCC2)ccc1Nc1nc2ccc(-c3ccc(C(=O)NCC4CC4)cc3)cn2n1` [Example 03.01, N-(cyclopropylmethyl)-4-(2-{[2-methoxy-4-(morpholin-4-ylcarbonyl)phenyl]amino}[,2]-triazolo[1,5-a]pyridin-6-yl)benzamide], the IC50 came to 2.71 nM.
As for `CCOc1cc(C(=O)N2CCOCC2)ccc1Nc1nc2ccc(-c3ccc(C(=O)NCC4CC4)cc3)cn2n1` [Example 03.02, N-(cyclopropylmethyl)-4-(2-{[2-ethoxy-4-(morpholin-4-ylcarbonyl)phenyl]amino}[,2]-triazolo[1,5-a]pyridin-6-yl)benzamide], the half-maximal inhibitory concentration (IC50) is at most 1 nM.
For `COc1cc(C2=NC(C)(C)CO2)ccc1Nc1nc2ccc(-c3ccc(C(=O)NCC4CC4)cc3)cn2n1` [Example 03.03, N-(cyclopropylmethyl)-4-(2-{[4-(4,4-dimethyl-4,5-dihydro-1,3-oxazol-2-yl)-2-methoxyphenyl]amino}[,2]-triazolo[1,5-a]pyridin-6-yl)benzamide], the IC50 was 5.51 nM.
Turning to `CCOc1cc(C(=O)NC2CCN(C)CC2)ccc1Nc1nc2ccc(-c3ccc(C(=O)NCC4CC4)cc3)cn2n1` [Example 03.04, 4-[(6-{4-[(cyclopropylmethyl)carbamoyl]phenyl}[,2]triazolo[1,5-a]pyridin-2-yl)amino]-3-ethoxy-N-(1-methylpiperidin-4-yl)benzamide], the IC50 is at most 1 nM.
As to `COc1cc(N2CCN(C)CC2)ccc1Nc1nc2ccc(-c3ccc(C(=O)NCC4CC4)cc3)cn2n1` [Example 03.05, N-(cyclopropylmethyl)-4-(2-{[2-methoxy-4-(4-methylpiperazin-1-yl)phenyl]amino}[,2]-triazolo[1,5-a]pyridin-6-yl)benzamide trifluoroacetate], the IC50 stood at 6.33 nM.
